Experimental data published in patent US8877707B2, “Inhibitors of HCV NS5A” (Presidio Pharmaceuticals, Inc., priority 2010, dated 2014).
pEC50: −log10 of the molar value.

The molecules below were run on HCV genotype 1b replicon in Huh 7 cells (assay: HCV replicon assay (1b_Huh-Luc/Neo-ET cell line, luciferase readout)). Conditions: Hepatitis C virus; Table 1; genotype 1b replicon, Huh 7 cells, 72 h, luciferase; read-out: Inhibition of HCV genotype 1b.
Type: cell-based
In short: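 Replicon level was read as luciferase signal after 72 h compound exposure, triplicate wells, starting the day after cells were plated. Cell line: 1b_Huh-Luc/Neo-ET. Values normalised to control as percent, and EC50 fitted with a variable-slope sigmoid; determinations repeated.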

| Compound | pEC50 |
| --- | --- |
| COC(=O)N[C@H](C(=O)N1CCC[C@H]1c1ncc(-c2cnc3cc(-c4ccc5nc([C@@H]6CCCN6C(=O)[C@@H](NC(=O)OC)C6CCOCC6)[nH]c5c4)ccc3c2)[nH]1)C(C)C [compound 192] | > 9.00 |
| COC(=O)N[C@H](C(=O)N1CCC[C@H]1c1ncc(-c2ccc3nc(-c4ccc5nc([C@@H]6CCCN6C(=O)[C@@H](NC(=O)OC)C(C)C)[nH]c5c4)ccc3c2)[nH]1)C(C)C [compound 193] | > 9.00 |
| COC(=O)N[C@H](C(=O)N1CCC[C@H]1c1nc2ccc(-c3ccc4cc(-c5cnc([C@@H]6CCCN6C(=O)[C@@H](NC(=O)OC)C6CCOCC6)[nH]5)ccc4n3)cc2[nH]1)C(C)C [compound 194] | > 9.00 |
| COC(=O)N[C@H](C(=O)N1CCC[C@H]1c1nc2ccc(-c3ccc4cc(-c5cnc([C@@H]6CCCN6C(=O)[C@H](NC(=O)OC)c6ccccc6)[nH]5)cnc4c3)cc2[nH]1)C(C)C [compound 195] | > 9.00 |
| COC(=O)N[C@H](C(=O)N1CCC[C@H]1c1nc2ccc(-c3ccc4cc(-c5cnc([C@@H]6CCCN6C(=O)[C@H](NC(=O)OC)c6ccccc6)[nH]5)ccc4n3)cc2[nH]1)C(C)C [compound 196] | > 9.00 |
| COC(=O)N[C@H](C(=O)N1CCC[C@H]1c1ncc(-c2ccc3nc(-c4ccc5nc([C@@H]6CCCN6C(=O)[C@H](NC(=O)OC)c6ccccc6)[nH]c5c4)ccc3c2)[nH]1)C(C)C [compound 197] | > 9.00 |
| COC(=O)N[C@H](C(=O)N1CCC[C@H]1c1ncc(-c2ccc3cc(-c4ccc5nc([C@@H]6CCCN6C(=O)[C@@H](NC(=O)OC)C(C)C)[nH]c5n4)ccc3c2)[nH]1)C(C)C [compound 198] | > 9.00 |
| COC(=O)N[C@H](C(=O)N1CCC[C@H]1c1ncc(-c2ccc3cc(-c4ccc5nc([C@@H]6CCCN6C(=O)[C@H](NC(=O)OC)c6ccccc6)[nH]c5n4)ccc3c2)[nH]1)C(C)C [compound 199] | > 9.00 |
| COC(=O)N[C@H](C(=O)N1CCC[C@H]1c1nc2ccc(-c3ccc4cc(-c5cnc([C@@H]6CCCN6C(=O)[C@H](NC(=O)OC)c6ccccc6)[nH]5)ccc4c3)nc2[nH]1)C(C)C [compound 200] | > 9.00 |
| COC(=O)N[C@H](C(=O)N1CCC[C@H]1c1nc2ccc(-c3ccc4cc(-c5cnc([C@@H]6CCCN6C(=O)[C@@H](NC(=O)OC)C6CCOCC6)[nH]5)ccc4c3)nc2[nH]1)C(C)C [compound 201] | > 9.00 |
| COC(=O)N[C@H](C(=O)N1CCC[C@H]1c1ncc(-c2ccc3cc(-c4ccc5nc([C@@H]6CCCN6C(=O)[C@@H](NC(=O)OC)C6CCOCC6)[nH]c5n4)ccc3c2)[nH]1)C(C)C [compound 202] | > 9.00 |
| COC(=O)N[C@H](C(=O)N1CCC[C@H]1c1ncc(-c2ccc3cc(-c4ccc5nc([C@@H]6CCCN6C(=O)[C@@H](NC(=O)OC)C6CCOCC6)[nH]c5c4)ccc3c2)[nH]1)C1CCOCC1 [compound 203] | > 9.00 |
| COC(=O)N[C@H](C(=O)N1CCC[C@H]1c1ncc(-c2ccc3cc(-c4ccc5nc([C@@H]6CCCN6C(=O)[C@@H](NC(=O)OC)C(C)C)[nH]c5c4)ncc3c2)[nH]1)C(C)C [compound 204] | > 9.00 |
| COC(=O)N[C@H](C(=O)N1CCC[C@H]1c1ncc(-c2ccc3cc(-c4ccc5nc([C@@H]6CCCN6C(=O)[C@@H](NC(=O)OC)C6CCOCC6)[nH]c5n4)ccc3c2)[nH]1)C1CCOCC1 [compound 205] | > 9.00 |
| COC(=O)N[C@H](C(=O)N1CCC[C@H]1c1ncc(-c2ccc3nc(-c4ccc5nc([C@@H]6CCCN6C(=O)[C@@H](NC(=O)OC)C6CCOCC6)[nH]c5c4)ccc3c2)[nH]1)C1CCOCC1 [compound 206] | 8.00 to 9.00 |
| COC(=O)N[C@H](C(=O)N1CCC[C@H]1c1ncc(-c2cccc3c(-c4ccc5nc([C@@H]6CCCN6C(=O)[C@@H](NC(=O)OC)C(C)C)[nH]c5c4)cccc23)[nH]1)C(C)C [compound 207] | > 9.00 |
| COC(=O)N[C@H](C(=O)N1CCC[C@H]1c1nc2ccc(-c3cccc4c(-c5cnc([C@@H]6CCCN6C(=O)[C@H](NC(=O)OC)c6ccccc6)[nH]5)cccc34)cc2[nH]1)C(C)C [compound 208] | > 9.00 |
| COC(=O)N[C@H](C(=O)N1CCC[C@H]1c1ncc(-c2ccc3cc(-c4ccc5nc([C@@H]6CCCN6C(=O)[C@@H](NC(=O)OC)C(C)C)[nH]c5c4)ccc3n2)[nH]1)C(C)C [compound 209] | > 9.00 |
| COC(=O)N[C@H](C(=O)N1CCC[C@H]1c1nc2ccc(-c3ccc4nc(-c5cnc([C@@H]6CCCN6C(=O)[C@H](NC(=O)OC)c6ccccc6)[nH]5)ccc4c3)cc2[nH]1)C(C)C [compound 210] | > 9.00 |
| COC(=O)N[C@H](C(=O)N1CCC[C@H]1c1nc2ccc(-c3ccc4nc(-c5cnc([C@@H]6CCCN6C(=O)[C@@H](NC(=O)OC)C6CCOCC6)[nH]5)ccc4c3)cc2[nH]1)C(C)C [compound 211] | > 9.00 |
| COC(=O)N[C@H](C(=O)N1CCC[C@H]1c1nc2ccc(-c3ccc4cc(-c5cnc([C@@H]6CCCN6C(=O)[C@H](NC(=O)OC)c6ccccc6)[nH]5)ccc4c3)cc2[nH]1)C1CCOCC1 [compound 212] | > 9.00 |

| Compound | pEC50 |
| --- | --- |
| COC(=O)N[C@H](C(=O)N1CCC[C@H]1c1ncc(-c2ccc3cc(-c4ccc5nc([C@@H]6CCCN6C(=O)[C@@H](c6ccccc6)N6CCOCC6)[nH]c5c4)ccc3c2)[nH]1)C(C)C [compound 213] | > 9.00 |
| COC(=O)N[C@H](C(=O)N1CCC[C@H]1c1ncc(-c2ccc3c(-c4ccc5[nH]c([C@@H]6CCCN6C(=O)[C@@H](NC(=O)OC)C(C)C)nc5c4)cccc3c2)[nH]1)C(C)C [compound 214] | 6.00 to 8.00 |
| COC(=O)N[C@H](C(=O)N1CCC[C@H]1c1nc2ccc(-c3cccc4c(-c5cnc([C@@H]6CCCN6C(=O)[C@@H](NC(=O)OC)C6CCOCC6)[nH]5)cccc34)cc2[nH]1)C(C)C [compound 215] | > 9.00 |
| COC(=O)N[C@H](C(=O)N1CCC[C@H]1c1nc2ccc(-c3cc4ccc(-c5cnc([C@@H]6CCCN6C(=O)[C@@H](NC(=O)OC)C6CCOCC6)[nH]5)cc4cn3)cc2[nH]1)C(C)C [compound 216] | > 9.00 |
| COC(=O)N[C@H](C(=O)N1CCC[C@H]1c1ncc(-c2ccc3cc(-c4ccc5nc([C@@H]6CCCN6C(=O)[C@@H](NC(=O)OC)C6CCOCC6)[nH]c5c4)ncc3c2)[nH]1)C1CCOCC1 [compound 217] | 8.00 to 9.00 |
| COC(=O)N[C@H](C(=O)N1CCC[C@H]1c1ncc(-c2ccc3cc(-c4ccc5nc([C@@H]6CCCN6C(=O)[C@@H](NC(=O)OC)C6CCCC6)[nH]c5c4)ccc3c2)[nH]1)C1CCCC1 [compound 218] | > 9.00 |
| COC(=O)N[C@H](C(=O)N1CCC[C@H]1c1ncc(-c2ccc3cc(-c4ccc5nc([C@@H]6CCCN6C(=O)[C@@H](NC(=O)OC)C6CCOCC6)[nH]c5c4)ncc3c2)[nH]1)C(C)C [compound 219] | > 9.00 |
| COC(=O)N[C@H](C(=O)N1CCOC[C@H]1c1ncc(-c2ccc3cc(-c4ccc5nc([C@@H]6CCCN6C(=O)[C@@H](NC(=O)OC)C(C)C)[nH]c5c4)ccc3c2)[nH]1)C(C)C [compound 220] | > 9.00 |
| COC(=O)N[C@H](C(=O)N1CCOC[C@H]1c1ncc(-c2ccc3cc(-c4ccc5nc([C@@H]6CCCN6C(=O)[C@@H](NC(=O)OC)C6CCOCC6)[nH]c5c4)ccc3c2)[nH]1)C(C)C [compound 221] | > 9.00 |
| COC(=O)N[C@H](C(=O)N1CCC[C@H]1c1ncc(-c2ccc3cc(-c4ccc5nc([C@@H]6COCCN6C(=O)[C@@H](NC(=O)OC)C(C)C)[nH]c5c4)ccc3c2)[nH]1)C(C)C [compound 222] | > 9.00 |
| COC(=O)N[C@H](C(=O)N1CCOC[C@H]1c1nc2ccc(-c3ccc4cc(-c5cnc([C@@H]6CCCN6C(=O)[C@@H](NC(=O)OC)C6CCOCC6)[nH]5)ccc4c3)cc2[nH]1)C(C)C [compound 223] | > 9.00 |
| COC(=O)N[C@H](C(=O)N1CCOC[C@H]1c1ncc(-c2ccc3cc(-c4ccc5nc([C@@H]6COCCN6C(=O)[C@@H](NC(=O)OC)C(C)C)[nH]c5c4)ccc3c2)[nH]1)C(C)C [compound 224] | > 9.00 |
| CC[C@@H](C)[C@H](NC(=O)OC)C(=O)N1CCC[C@H]1c1ncc(-c2ccc3cc(-c4ccc5nc([C@@H]6CCCN6C(=O)[C@@H](NC(=O)OC)[C@H](C)CC)[nH]c5c4)ccc3c2)[nH]1 [compound 225] | > 9.00 |
| CC[C@H](NC(=O)OC)C(=O)N1CCC[C@H]1c1ncc(-c2ccc3cc(-c4ccc5nc([C@@H]6CCCN6C(=O)[C@H](CC)NC(=O)OC)[nH]c5c4)ccc3c2)[nH]1 [compound 226] | > 9.00 |
| CCC(CC)[C@H](NC(=O)OC)C(=O)N1CCC[C@H]1c1ncc(-c2ccc3cc(-c4ccc5nc([C@@H]6CCCN6C(=O)[C@@H](NC(=O)OC)C(CC)CC)[nH]c5c4)ccc3c2)[nH]1 [compound 227] | > 9.00 |
| COC(=O)N[C@H](C(=O)N1CCC[C@H]1c1ncc(-c2ccc3cc(-c4ccc5nc([C@@H]6CCCN6C(=O)[C@@H](NC(=O)OC)C6CC6)[nH]c5c4)ccc3c2)[nH]1)C1CC1 [compound 228] | > 9.00 |
| COC(=O)N[C@H](C(=O)N1CCC[C@H]1c1ncc(-c2ccc(-c3nc4ccc(-c5cnc([C@@H]6CCCN6C(=O)[C@@H](NC(=O)OC)C(C)C)[nH]5)cc4s3)cc2)[nH]1)C(C)C [compound 229] | > 9.00 |
| COC(=O)N[C@@H](C(=O)N1CCC[C@H]1c1ncc(-c2ccc(-c3nc4ccc(-c5cnc([C@@H]6CCCN6C(=O)[C@H](NC(=O)OC)c6ccccc6)[nH]5)cc4s3)cc2)[nH]1)c1ccccc1 [compound 230] | > 9.00 |
| COC(=O)N[C@H](C(=O)N1CCC[C@H]1c1ncc(-c2ccc(-c3nc4ccc(-c5cnc([C@@H]6CCCN6C(=O)[C@@H](NC(=O)OC)C(C)C)[nH]5)cc4n3C)cc2)[nH]1)C(C)C [compound 231] | > 9.00 |
| COC(=O)N[C@H](C(=O)N1CCC[C@H]1c1ncc(-c2ccc(-c3nc4cc(-c5cnc([C@@H]6CCCN6C(=O)[C@@H](NC(=O)OC)C(C)C)[nH]5)ccc4n3C)cc2)[nH]1)C(C)C [compound 232] | > 9.00 |
| COC(=O)N[C@@H](C(=O)N1CCC[C@H]1c1ncc(-c2ccc(-c3nc4cc(-c5cnc([C@@H]6CCCN6C(=O)[C@H](NC(=O)OC)c6ccccc6)[nH]5)ccc4n3C)cc2)[nH]1)c1ccccc1 [compound 233] | > 9.00 |
